Laboratory results taken from the supplement of paper PMC10307832.

Legend:
Assay in all cases: relative viability (nuclei count vs DMSO), 5 days (fraction); higher = more cells survive
[1] = system: SK-MES-1
Method in brief: (§1)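 The day after seeding in 1536-well plates, lung cancer cell lines were treated by pin tool with a single drug, or with a fixed anchor-drug dose together with five library-drug doses (not always all listed) in √10 steps. After 5 days, a combined fix-and-stain solution (final 0.05% Triton X-100, 1% formaldehyde, 1 ug/ml Hoechst) was added. Nuclei counted on 4× images gave relative viability as treated counts over vehicle counts, reported as the median of duplicate plates.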

[2] = system: PC-14
Method in brief: as §1

[3] = system: NCI-H460
Method in brief: as §1

[4] = system: NCI-H322M
Method in brief: as §1

[5] = system: NCI-H1915
Method in brief: as §1

[6] = system: NCI-H1563
Method in brief: as §1

[7] = system: NCI-H1651
Method in brief: as §1

[8] = system: NCI-H661
Method in brief: as §1

[9] = system: NCI-H3122
Method in brief: as §1

[10] = system: RERF-LC-KJ
Method in brief: as §1

[11] = system: NCI-H727
Method in brief: as §1

[12] = system: NCI-H2347
Method in brief: as §1

[13] = system: NCI-H596
Method in brief: as §1

[14] = system: LXF-289
Method in brief: as §1

[15] = system: NCI-H1355
Method in brief: as §1

[16] = system: NCI-H1792
Method in brief: as §1

[17] = system: NCI-H1755
Method in brief: as §1

[18] = system: NCI-H441
Method in brief: as §1

[19] = system: LCLC-103H
Method in brief: as §1

[20] = system: NCI-H520
Method in brief: as §1

SMILES: CCN(CC)CCCCNc1ncc2cc(-c3cc(OC)cc(OC)c3)c(NC(=O)NC(C)(C)C)nc2n1 + Cc1nc(NC(=O)N2CCC[C@H]2C(N)=O)sc1-c1ccnc(C(C)(C)C(F)(F)F)c1 [Alpelisib] (partner 2 µM)
- relative viability ([1]; first compound 0.01 µM): 1.12
- relative viability ([1]; first compound 0.03162 µM): 0.934
- relative viability ([1]; first compound 0.1 µM): 0.877
- relative viability ([1]; first compound 0.3162 µM): 1.03
- relative viability ([1]; first compound 1 µM): 0.849
- relative viability ([2]; first compound 0.01 µM): 1.02
- relative viability ([2]; first compound 0.03162 µM): 1.08
- relative viability ([2]; first compound 0.1 µM): 0.879
- relative viability ([2]; first compound 0.3162 µM): 1.16
- relative viability ([2]; first compound 1 µM): 0.943
- relative viability ([3]; first compound 0.01 µM): 0.646
- relative viability ([3]; first compound 0.03162 µM): 0.58
- relative viability ([3]; first compound 0.1 µM): 0.82
- relative viability ([3]; first compound 0.3162 µM): 0.463
- relative viability ([3]; first compound 1 µM): 0.399
- relative viability ([4]; first compound 0.01 µM): 0.822
- relative viability ([4]; first compound 0.03162 µM): 0.782
- relative viability ([4]; first compound 0.1 µM): 0.77
- relative viability ([4]; first compound 0.3162 µM): 1.02
- relative viability ([4]; first compound 1 µM): 0.75
- relative viability ([5]; first compound 0.01 µM): 1.07
- relative viability ([5]; first compound 0.03162 µM): 1.15
- relative viability ([5]; first compound 0.1 µM): 1.06
- relative viability ([5]; first compound 0.3162 µM): 1.14
- relative viability ([5]; first compound 1 µM): 1.07
- relative viability ([6]; first compound 0.01 µM): 0.849
- relative viability ([6]; first compound 0.03162 µM): 0.96
- relative viability ([6]; first compound 0.1 µM): 0.896
- relative viability ([6]; first compound 0.3162 µM): 0.771
- relative viability ([6]; first compound 1 µM): 0.619
- relative viability ([7]; first compound 0.01 µM): 0.938
- relative viability ([7]; first compound 0.03162 µM): 1
- relative viability ([7]; first compound 0.1 µM): 1.1
- relative viability ([7]; first compound 0.3162 µM): 1.13
- relative viability ([7]; first compound 1 µM): 0.844
- relative viability ([8]; first compound 0.01 µM): 0.537
- relative viability ([8]; first compound 0.03162 µM): 0.382
- relative viability ([8]; first compound 0.1 µM): 0.657
- relative viability ([8]; first compound 0.3162 µM): 0.858
- relative viability ([8]; first compound 1 µM): 0.535
- relative viability ([9]; first compound 0.01 µM): 0.941
- relative viability ([9]; first compound 0.03162 µM): 0.877
- relative viability ([9]; first compound 0.1 µM): 0.906
- relative viability ([9]; first compound 0.3162 µM): 0.931
- relative viability ([9]; first compound 1 µM): 0.824
- relative viability ([10]; first compound 0.01 µM): 1.08
- relative viability ([10]; first compound 0.03162 µM): 0.919
- relative viability ([10]; first compound 0.1 µM): 0.925
- relative viability ([10]; first compound 0.3162 µM): 0.951
- relative viability ([10]; first compound 1 µM): 0.826
- relative viability ([11]; first compound 0.01 µM): 0.586
- relative viability ([11]; first compound 0.03162 µM): 0.449
- relative viability ([11]; first compound 0.1 µM): 0.678
- relative viability ([11]; first compound 0.3162 µM): 0.579
- relative viability ([11]; first compound 1 µM): 0.543
- relative viability ([12]; first compound 0.01 µM): 1.08
- relative viability ([12]; first compound 0.03162 µM): 1.09
- relative viability ([12]; first compound 0.1 µM): 1.04
- relative viability ([12]; first compound 0.3162 µM): 1.09
- relative viability ([12]; first compound 1 µM): 1.11
- relative viability ([13]; first compound 0.01 µM): 0.528
- relative viability ([13]; first compound 0.03162 µM): 0.48
- relative viability ([13]; first compound 0.1 µM): 0.478
- relative viability ([13]; first compound 0.3162 µM): 0.549
- relative viability ([13]; first compound 1 µM): 0.368
- relative viability ([14]; first compound 0.01 µM): 1.07
- relative viability ([14]; first compound 0.03162 µM): 1.06
- relative viability ([14]; first compound 0.1 µM): 1.19
- relative viability ([14]; first compound 0.3162 µM): 1.02
- relative viability ([14]; first compound 1 µM): 0.971
- relative viability ([15]; first compound 0.01 µM): 0.776
- relative viability ([15]; first compound 0.03162 µM): 0.847
- relative viability ([15]; first compound 0.1 µM): 0.894
- relative viability ([15]; first compound 0.3162 µM): 0.839
- relative viability ([15]; first compound 1 µM): 0.785
- relative viability ([16]; first compound 0.01 µM): 0.797
- relative viability ([16]; first compound 0.03162 µM): 0.674
- relative viability ([16]; first compound 0.1 µM): 0.51
- relative viability ([16]; first compound 0.3162 µM): 0.766
- relative viability ([16]; first compound 1 µM): 0.563
- relative viability ([17]; first compound 0.01 µM): 0.983
- relative viability ([17]; first compound 0.03162 µM): 0.942
- relative viability ([17]; first compound 0.1 µM): 0.983
- relative viability ([17]; first compound 0.3162 µM): 1.06
- relative viability ([17]; first compound 1 µM): 0.927
- relative viability ([18]; first compound 0.01 µM): 0.801
- relative viability ([18]; first compound 0.03162 µM): 0.62
- relative viability ([18]; first compound 0.1 µM): 0.698
- relative viability ([18]; first compound 0.3162 µM): 0.708
- relative viability ([18]; first compound 1 µM): 0.773
- relative viability ([19]; first compound 0.01 µM): 1.09
- relative viability ([19]; first compound 0.03162 µM): 0.967
- relative viability ([19]; first compound 0.1 µM): 0.975
- relative viability ([19]; first compound 0.3162 µM): 1.01
- relative viability ([19]; first compound 1 µM): 1.01
- relative viability ([20]; first compound 0.01 µM): 1.07
- relative viability ([20]; first compound 0.03162 µM): 0.898
- relative viability ([20]; first compound 0.1 µM): 1.16
- relative viability ([20]; first compound 0.3162 µM): 0.662
- relative viability ([20]; first compound 1 µM): 0.332
